The molecules below were run on MV4-11 cells (assay: Cell proliferation assay MV4;11 (CellTiter-Glo, 72 hours)). Conditions: Homo sapiens; MV4;11 leukemia cell line, 72 hours; read-out: MV4; 11 IC50.
Assay type: cell-based
Method in brief: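 Luminescent CellTiter-Glo readout after 72 h culture, 37 °C, 5% CO2, expressed relative to vehicle-treated wells, with maximal inhibition taken at the highest dose. MLL-rearranged MV4-11 leukemia cells; final compound range 0.632 to 2000 nM in eight steps.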

Question: Which IC50 does the source give for `CC(C)N(C(=O)c1cc(F)ccc1Oc1cncnc1N1CC2(CCN(C[C@@H]3CC[C@@H](NS(=O)(=O)N4CCOCC4)CO3)CC2)C1)C1CC(F)(F)C1` [Example 116, N-(3,3-Difluorocyclobutyl)-5-fluoro-N-isopropyl-2-((4-(7-(((2S,5R)-5-(morpholine-4-sulfonamido)tetrahydro-2H-pyran-2-yl)methyl)-2,7-diazaspiro[3.5]nonan-2-yl)pyrimidin-5-yl)oxy)benzamide] here?
Answer: The IC50 was less than 0.1 µM.

Question: Which IC50 does the source give for `CC(C)N(C(=O)c1cc(F)ccc1Oc1cncnc1N1CC2(CCN(C[C@@H]3CC[C@@H](NS(N)(=O)=O)CO3)CC2)C1)C1CC(F)(F)C1` [Example 117, N-(3,3-Difluorocyclobutyl)-5-fluoro-N-isopropyl-2-((4-(7-(((2S,5R)-5-(sulfamoylamino)tetrahydro-2H-pyran-2-yl)methyl)-2,7-diazaspiro[3.5]nonan-2-yl)pyrimidin-5-yl)oxy)benzamide] here?
Answer: Its IC50 is less than 0.1 µM.

Question: `CC(C)N(C(=O)c1cc(F)ccc1Oc1cncnc1N1CC2(CCN(C[C@@H]3CC[C@@H](NS(=O)(=O)N4CCC4)CO3)CC2)C1)C1CC(F)(F)C1` [Example 118, 2-((4-(7-(((2S,5R)-5-(Azetidine-1-sulfonamido)tetrahydro-2H-pyran-2-yl)methyl)-2,7-diazaspiro[3.5]nonan-2-yl)pyrimidin-5-yl)oxy)-N-(3,3-difluorocyclobutyl)-5-fluoro-N-isopropylbenzamide] was tested. Which IC50 did it give?
Answer: The IC50 was less than 0.1 µM.

Question: For `CC(C)N(C(=O)c1cc(F)ccc1Oc1cncnc1N1CC2(CCN(C[C@@H]3CC[C@@H](NS(=O)(=O)N(C)C(C)C)CO3)CC2)C1)C1CC(F)(F)C1` [Example 119, N-(3,3-Difluorocyclobutyl)-5-fluoro-N-isopropyl-2-((4-(7-(((2S,5R)-5-((N-isopropyl-N-methylsulfamoyl)amino)tetrahydro-2H-pyran-2-yl)methyl)-2,7-diazaspiro[3.5]nonan-2-yl)pyrimidin-5-yl)oxy)benzamide], which IC50 is on record?
Answer: Its IC50 is less than 0.1 µM.

Question: How did the IC50 turn out when `C[C@@H]1COC[C@@H](C)N1C(=O)c1cc(F)ccc1Oc1cncnc1N1CC2(CCN(C[C@@H]3CC[C@@H](NS(=O)(=O)c4ccccc4)CO3)CC2)C1` [Example 120, N-((3R,6S)-6-((2-(5-(2-((3R,5R)-3,5-Dimethylmorpholine-4-carbonyl)-4-fluorophenoxy)pyrimidin-4-yl)-2,7-diazaspiro[3.5]nonan-7-yl)methyl)tetrahydro-2H-pyran-3-yl)benzenesulfonamide] was run?
Answer: Its IC50 is less than 0.1 µM.

Question: How did the IC50 turn out when `C[C@@H]1COC[C@@H](C)N1C(=O)c1cc(F)ccc1Oc1cncnc1N1CC2(CCN(C[C@@H]3CC[C@@H](NS(=O)(=O)N4CCC4)CO3)CC2)C1` [Example 121, N-((3R,6S)-6-((2-(5-(2-((3R,5R)-3,5-Dimethylmorpholine-4-carbonyl)-4-fluorophenoxy)pyrimidin-4-yl)-2,7-diazaspiro[3.5]nonan-7-yl)methyl)tetrahydro-2H-pyran-3-yl)azetidine-1-sulfonamide] was run?
Answer: Its IC50 is less than 0.1 µM.

Question: How did the IC50 turn out when `Cc1nc(S(=O)(=O)N[C@@H]2CC[C@@H](CN3CCC4(CC3)CN(c3ncncc3Oc3ccc(F)cc3C(=O)N3[C@H](C)COC[C@H]3C)C4)OC2)cs1` [Example 122, N-((3R,6S)-6-((2-(5-(2-((3R,5R)-3,5-Dimethylmorpholine-4-carbonyl)-4-fluorophenoxy)pyrimidin-4-yl)-2,7-diazaspiro[3.5]nonan-7-yl)methyl)tetrahydro-2H-pyran-3-yl)-2-methylthiazole-4-sulfonamide] was run?
Answer: Its IC50 is less than 0.1 µM.

Question: For `C[C@@H]1COC[C@@H](C)N1C(=O)c1cc(F)ccc1Oc1cncnc1N1CC2(CCN(C[C@@H]3CC[C@@H](NS(=O)(=O)N(C)C)CO3)CC2)C1` [Example 123, {[(3R,6S)-6-{[2-(5-{2-[(3R,5R)-3,5-Dimethylmorpholine-4-carbonyl]-4-fluorophenoxy}pyrimidin-4-yl)-2,7-diazaspiro[3.5]nonan-7-yl]methyl}oxan-3-yl]sulfamoyl}dimethylamine], which IC50 is on record?
Answer: The IC50 was less than 0.1 µM.

Question: For `C[C@@H]1COC[C@@H](C)N1C(=O)c1cc(F)ccc1Oc1cncnc1N1CC2(CCN(C[C@@H]3CC[C@@H](NS(=O)(=O)N4CCCC4)CO3)CC2)C1` [Example 124, N-((3R,6S)-6-((2-(5-(2-((3R,5R)-3,5-Dimethylmorpholine-4-carbonyl)-4-fluorophenoxy)pyrimidin-4-yl)-2,7-diazaspiro[3.5]nonan-7-yl)methyl)tetrahydro-2H-pyran-3-yl)pyrrolidine-1-sulfonamide], which IC50 is on record?
Answer: Its IC50 is less than 0.1 µM.

Question: How did the IC50 turn out when `CCNS(=O)(=O)N[C@@H]1CC[C@@H](CN2CCC3(CC2)CN(c2ncncc2Oc2ccc(F)cc2C(=O)N2[C@H](C)COC[C@H]2C)C3)OC1` [Example 125, {[(3R,6S)-6-{[2-(5-{2-[(3R,5R)-3,5-Dimethylmorpholine-4-carbonyl]-4-fluorophenoxy}pyrimidin-4-yl)-2,7-diazaspiro[3.5]nonan-7-yl]methyl}oxan-3-yl]sulfamoyl}(ethyl)amine] was run?
Answer: The IC50 was less than 0.1 µM.

Question: Which IC50 does the source give for `C[C@@H]1COC[C@@H](C)N1C(=O)c1cc(F)ccc1Oc1cncnc1N1CC2(CCN(C[C@@H]3CC[C@@H](NS(=O)(=O)c4cnn(C)c4)CO3)CC2)C1` [Example 126, N-((3R,6S)-6-((2-(5-(2-((3R,5R)-3,5-Dimethylmorpholine-4-carbonyl)-4-fluorophenoxy)pyrimidin-4-yl)-2,7-diazaspiro[3.5]nonan-7-yl)methyl)tetrahydro-2H-pyran-3-yl)-1-methyl-1H-pyrazole-4-sulfonamide] here?
Answer: The IC50 was less than 0.1 µM.

Question: For `C[C@@H]1COC[C@@H](C)N1C(=O)c1cc(F)ccc1Oc1cncnc1N1CC2(CCN(C[C@@H]3CC[C@@H](NS(=O)(=O)c4ccn(C)n4)CO3)CC2)C1` [Example 127, N-((3R,6S)-6-((2-(5-(2-((3R,5R)-3,5-Dimethylmorpholine-4-carbonyl)-4-fluorophenoxy)pyrimidin-4-yl)-2,7-diazaspiro[3.5]nonan-7-yl)methyl)tetrahydro-2H-pyran-3-yl)-1-methyl-1H-pyrazole-3-sulfonamide], which IC50 is on record?
Answer: Its IC50 is less than 0.1 µM.

Question: For `CCN(C)S(=O)(=O)N[C@@H]1CC[C@@H](CN2CCC3(CC2)CN(c2ncncc2Oc2ccc(F)cc2C(=O)N2[C@H](C)COC[C@H]2C)C3)OC1` [Example 128, {[(3R,6S)-6-{[2-(5-{2-[(3R,5R)-3,5-Dimethylmorpholine-4-carbonyl]-4-fluorophenoxy}pyrimidin-4-yl)-2,7-diazaspiro[3.5]nonan-7-yl]methyl}oxan-3-yl]sulfamoyl}(ethyl)methylamine], which IC50 is on record?
Answer: Its IC50 is less than 0.1 µM.

Question: Which IC50 does the source give for `C[C@@H]1COC[C@@H](C)N1C(=O)c1cc(F)ccc1Oc1cncnc1N1CC2(CCN(C[C@@H]3CC[C@@H](NS(=O)(=O)N(C)C4CC4)CO3)CC2)C1` [Example 129, N-{[(3R,6S)-6-{[2-(5-{2-[(3R,5R)-3,5-Dimethylmorpholine-4-carbonyl]-4-fluorophenoxy}pyrimidin-4-yl)-2,7-diazaspiro[3.5]nonan-7-yl]methyl}oxan-3-yl]sulfamoyl}-N-methylcyclopropanamine] here?
Answer: Its IC50 is less than 0.1 µM.

Question: For `C[C@@H]1COC[C@H](C)N1C(=O)c1cc(F)ccc1Oc1cncnc1N1CC2(CCN(C[C@@H]3CC[C@@H](NS(=O)(=O)c4ccccc4)CO3)CC2)C1` [Example 130, N-((3R,6S)-6-((2-(5-(2-((3S,5R)-3,5-Dimethylmorpholine-4-carbonyl)-4-fluorophenoxy)pyrimidin-4-yl)-2,7-diazaspiro[3.5]nonan-7-yl)methyl)tetrahydro-2H-pyran-3-yl)benzenesulfonamide], which IC50 is on record?
Answer: Its IC50 is less than 0.1 µM.

Question: Which IC50 does the source give for `Cc1nc(S(=O)(=O)N[C@@H]2CC[C@@H](CN3CCC4(CC3)CN(c3ncncc3Oc3ccc(F)cc3C(=O)N3[C@H](C)COC[C@@H]3C)C4)OC2)cs1` [Example 131, N-((3R,6S)-6-((2-(5-(2-((3S,5R)-3,5-Dimethylmorpholine-4-carbonyl)-4-fluorophenoxy)pyrimidin-4-yl)-2,7-diazaspiro[3.5]nonan-7-yl)methyl)tetrahydro-2H-pyran-3-yl)-2-methylthiazole-4-sulfonamide] here?
Answer: Its IC50 is less than 0.1 µM.

Question: For `CC(C)N(C(=O)c1cc(F)ccc1Oc1cncnc1N1CC2(CCN(C[C@@H]3CC[C@@H](NS(=O)(=O)C(C)C)CO3)CC2)C1)[C@@H]1CCOC1` [Example 132, 5-Fluoro-N-isopropyl-2-((4-(7-(((2S,5R)-5-((1-methylethyl)sulfonamido)tetrahydro-2H-pyran-2-yl)methyl)-2,7-diazaspiro[3.5]nonan-2-yl)pyrimidin-5-yl)oxy)-N-((R)-tetrahydrofuran-3-yl)benzamide], which IC50 is on record?
Answer: Its IC50 is less than 0.1 µM.

Question: `CC(C)N(C(=O)c1cc(F)ccc1Oc1cncnc1N1CC2(CCN(C[C@@H]3CC[C@@H](NS(=O)(=O)N4CCC4)CO3)CC2)C1)[C@H]1CCOC1` [Example 134, 2-((4-(7-(((2S,5R)-5-(Azetidine-1-sulfonamido)tetrahydro-2H-pyran-2-yl)methyl)-2,7-diazaspiro[3.5]nonan-2-yl)pyrimidin-5-yl)oxy)-5-fluoro-N-isopropyl-N-((S)-tetrahydrofuran-3-yl)benzamide] was tested. Which IC50 did it give?
Answer: The IC50 was less than 0.1 µM.

Question: For `CC(C)N(CCC#N)C(=O)c1cc(F)ccc1Oc1cncnc1N1CC2(CCN(C[C@@H]3CC[C@@H](NS(=O)(=O)c4ccccc4)CO3)CC2)C1` [Example 136, N-(2-Cyanoethyl)-5-fluoro-N-isopropyl-2-((4-(7-(((2S,5R)-5-(phenylsulfonamido)tetrahydro-2H-pyran-2-yl)methyl)-2,7-diazaspiro[3.5]nonan-2-yl)pyrimidin-5-yl)oxy)benzamide], which IC50 is on record?
Answer: The IC50 was less than 0.1 µM.

Question: Which IC50 does the source give for `CC(C)N(C)C(=O)c1cc(F)ccc1Oc1cncnc1N1CC2(CCN(C[C@@H]3CC[C@@H](NS(=O)(=O)N(C)C)CO3)CC2)C1` [Example 137, 2-((4-(7-(((2S,5R)-5-((N,N-Dimethylsulfamoyl)amino)tetrahydro-2H-pyran-2-yl)methyl)-2,7-diazaspiro[3.5]nonan-2-yl)pyrimidin-5-yl)oxy)-5-fluoro-N-isopropyl-N-methylbenzamide] here?
Answer: The IC50 was less than 0.1 µM.

Question: `CC(C)N(C)C(=O)c1cc(F)ccc1Oc1cncnc1N1CC2(CCN(C[C@@H]3CC[C@@H](NS(=O)(=O)N4CCC4)CO3)CC2)C1` [Example 138, 2-((4-(7-(((2S,5R)-5-(Azetidine-1-sulfonamido)tetrahydro-2H-pyran-2-yl)methyl)-2,7-diazaspiro[3.5]nonan-2-yl)pyrimidin-5-yl)oxy)-5-fluoro-N-isopropyl-N-methylbenzamide] was tested. Which IC50 did it give?
Answer: Its IC50 is less than 0.1 µM.
